Activity calls are given as the source filed them. No cut-off for these calls is given here.

This test deals with Mus musculus. In words: Antiinflammatory activity in BALB/c mouse assessed as inhibition of heat killed Propionibacterium acnes-induced neutrophil influx at 300 pg, ip administered 12 hrs after Propionibacterium acnes stimulation and measured after 24 hrs by flow cytometry analysis. Format: functional. On the technique in general: Flow cytometry measures light scatter and fluorescence of single cells or particles in a stream.

`CC[C@@H](O)/C=C/C=C\C[C@@H](O)/C=C/C=C/C=C\[C@@H](O)[C@@H]1C[C@@H]1C(=O)O`: the inhibition entry was “Active”.

As to `CC[C@@H](O)/C=C/C=C\C[C@@H](O)/C=C/C=C/C=C\[C@@H](O)[C@H]1C[C@H]1C(=O)O`, the inhibition result was “Active”.

Take `CC[C@@H](O)/C=C/C=C\C[C@@H](O)/C=C/C=C/C=C\[C@@H](O)[C@@H]1C[C@H]1C(=O)O`: the inhibition result was “Active”.

Consider `CC[C@@H](O)/C=C/C=C\C[C@@H](O)/C=C/C=C/C=C\[C@@H](O)CCCC(=O)O` [RESOLVIN E1], for which the “inhibition (INH)” value came to 31%.

`CC[C@@H](O)/C=C/C=C\C[C@@H](O)/C=C/C=C/C=C\[C@@H](O)[C@H]1C[C@@H]1C(=O)O`: the “inhibition (INH)” value came out at 50%.

For the origin of these results see ChEMBL document CHEMBL4715926, “Synthesis of Resolvin E1 and Its Conformationally Restricted Cyclopropane Congeners with Potent Anti-Inflammatory Effect” (2021).
